Assay: recombinant UMI read abundance after kanamycin selection (control-corrected) (log10(CPM+1)); higher = more efficient recombination; extreme values may be limits of the assay; sequences stand for … in AGTGCAGAGAAAATCGGCCAGTTTTCTCTGCCTGCAGTCCGCATGCCGTGGGACCCCTTGGGTTCTAACCTGTTGCCTAGATTTATGCAGCGGACTGCCTTTCTCCCAAAGTGATAAACCGG…AGGTTGGTTTCACT; site = the 11-nt donor
Outline: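 The measure is log10(CPM+1) for recombinant UMIs. These were PCR-amplified across the donor–target junction and sequenced after Escherichia coli carrying a donor and donor-binding-loop pair library and a target plasmid with T7-inducible IS621 bridge recombinase was plated on IPTG (0.07 mM) plus kanamycin or unselected. CPM were averaged over two replicates and scaled by control-derived factors.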
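Further: IS621 bridge recombinase in Escherichia coli cells against a fixed T5 target plasmid.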

| Sequence | recombinant UMI read abundance (log10) |
| --- | --- |
| GAAGGTTCATGGACCGGTTTTCCCGGTAATCCGTATTTGTT (site GAAGGTTCTAA) | 2.35 |
| GAAGGTTCATGGACCGGTTTTCCCGGTAATCCGTATTTGTT (site GAAGTTTCTAA) | 0 |
| GAAGTCACATGGACCGGTTTTCCCGGTAATCCGTATTTGGG (site AAAGTCACTCC) | 0.11 |
| GAAGTCACATGGACCGGTTTTCCCGGTAATCCGTATTTGGG (site CAAGTCACTCC) | 0.0174 |
| GAAGTCACATGGACCGGTTTTCCCGGTAATCCGTATTTGGG (site GAAGTCACTCC) | 0.412 |
| GAAGTCACATGGACCGGTTTTCCCGGTAATCCGTATTTGGG (site TAAGTCACTCC) | 0.221 |
| GAAGTGACATGGACCGGTTTTCCCGGTAATCCGTATTTGCG (site GAAGTGACTCG) | 2.14 |
| GAATAAGCATGGACCGGTTTTCCCGGTAATCCGTATTTGTG (site GAATAAGCTCA) | 1.99 |
| GAATATCCATGGACCGGTTTTCCCGGTAATCCGTATTTGCT (site GAATATCCTAG) | 1.3 |
| GAATATCCATGGACCGGTTTTCCCGGTAATCCGTATTTGCT (site GACTATCCTAG) | 0 |
| GAATATCCATGGACCGGTTTTCCCGGTAATCCGTATTTGCT (site GAGTATCCTAG) | 0 |
| GAATATCCATGGACCGGTTTTCCCGGTAATCCGTATTTGCT (site GATTATCCTAG) | 0 |
| GAATCATCATGGACCGGTTTTCCCGGTAATCCGTATTTGCT (site CGATCATCTAG) | 1.88 |
| GAATCATCATGGACCGGTTTTCCCGGTAATCCGTATTTGCT (site GAATCATCTAG) | 1.95 |
| GAATCGTCATGGACCGGTTTTCCCGGTAATCCGTATTTGCA (site GAATCGTCTTG) | 2.71 |
| GAATCTCCATGGACCGGTTTTCCCGGTAATCCGTATTTGAA (site GAATCTCCTTT) | 0.611 |
| GAATGCACATGGACCGGTTTTCCCGGTAATCCGTATTTGTA (site GAATGCACTTA) | 1.87 |
| GAATGCACATGGACCGGTTTTCCCGGTAATCCGTATTTGTA (site GCATGCACTTA) | 0.691 |
| GAATGCACATGGACCGGTTTTCCCGGTAATCCGTATTTGTA (site GGATGCACTTA) | 0.585 |
| GAATGCACATGGACCGGTTTTCCCGGTAATCCGTATTTGTA (site GTATGCACTTA) | 0.36 |
| GAATGGACATGGACCGGTTTTCCCGGTAATCCGTATTTGAC (site GAATGGACTGT) | 2.81 |
| GAATGGACATGGACCGGTTTTCCCGGTAATCCGTATTTGAC (site GACTGGACTGT) | 0 |
| GAATGGACATGGACCGGTTTTCCCGGTAATCCGTATTTGAC (site GAGTGGACTGT) | 0 |
| GAATGGACATGGACCGGTTTTCCCGGTAATCCGTATTTGAC (site GATTGGACTGT) | 0.743 |
| GAATGGACATGGACCGGTTTTCCCGGTAATCCGTATTTGCA (site GAATGGACTTG) | 2.46 |

| Sequence | recombinant UMI read abundance (log10) |
| --- | --- |
| GAATGGACATGGACCGGTTTTCCCGGTAATCCGTATTTGCA (site GAATGGCCTTG) | 0.483 |
| GAATGGACATGGACCGGTTTTCCCGGTAATCCGTATTTGCA (site GAATGGGCTTG) | 2.41 |
| GAATGGACATGGACCGGTTTTCCCGGTAATCCGTATTTGCA (site GAATGGTCTTG) | 1.59 |
| GAATGGCCATGGACCGGTTTTCCCGGTAATCCGTATTTGAA (site GAATGGCCTTA) | 0.00888 |
| GAATGGCCATGGACCGGTTTTCCCGGTAATCCGTATTTGAA (site GAATGGCCTTC) | 0 |
| GAATGGCCATGGACCGGTTTTCCCGGTAATCCGTATTTGAA (site GAATGGCCTTG) | 0.0104 |
| GAATGGCCATGGACCGGTTTTCCCGGTAATCCGTATTTGAA (site GAATGGCCTTT) | 0.0109 |
| GAATGGTCATGGACCGGTTTTCCCGGTAATCCGTATTTGCA (site GAATGGACTTG) | 0.0076 |
| GAATGGTCATGGACCGGTTTTCCCGGTAATCCGTATTTGCA (site GAATGGCCTTG) | 0 |
| GAATGGTCATGGACCGGTTTTCCCGGTAATCCGTATTTGCA (site GAATGGGCTTG) | 0.00395 |
| GAATGGTCATGGACCGGTTTTCCCGGTAATCCGTATTTGCA (site GAATGGTCTTG) | 2.38 |
| GAATTCCCATGGACCGGTTTTCCCGGTAATCCGTATTTGTA (site GAATTCCCTTA) | 0.666 |
| GAATTGACATGGACCGGTTTTCCCGGTAATCCGTATTTGAT (site GAATTGACTAT) | 1.37 |
| GAATTGCCATGGACCGGTTTTCCCGGTAATCCGTATTTGCA (site GAATAGCCTTG) | 0 |
| GAATTGCCATGGACCGGTTTTCCCGGTAATCCGTATTTGCA (site GAATCGCCTTG) | 0 |
| GAATTGCCATGGACCGGTTTTCCCGGTAATCCGTATTTGCA (site GAATGGCCTTG) | 0.696 |
| GAATTGCCATGGACCGGTTTTCCCGGTAATCCGTATTTGCA (site GAATTGCCTTG) | 0 |
| GACAAATCATGGACCGGTTTTCCCGGTAATCCGTATTTGGT (site GACAAAACTAC) | 0 |
| GACAAATCATGGACCGGTTTTCCCGGTAATCCGTATTTGGT (site GACAAACCTAC) | 0 |
| GACAAATCATGGACCGGTTTTCCCGGTAATCCGTATTTGGT (site GACAAAGCTAC) | 0.224 |
| GACAAATCATGGACCGGTTTTCCCGGTAATCCGTATTTGGT (site GACAAATCTAC) | 0.59 |
| GACAATCCATGGACCGGTTTTCCCGGTAATCCGTATTTGGT (site GACAAACCTAC) | 0 |
| GACAATCCATGGACCGGTTTTCCCGGTAATCCGTATTTGGT (site GACAACCCTAC) | 0.00483 |
| GACAATCCATGGACCGGTTTTCCCGGTAATCCGTATTTGGT (site GACAAGCCTAC) | 0.0115 |
| GACAATCCATGGACCGGTTTTCCCGGTAATCCGTATTTGGT (site GACAATCCTAC) | 0.0195 |

| Sequence | recombinant UMI read abundance (log10) |
| --- | --- |
| GACACGACATGGACCGGTTTTCCCGGTAATCCGTATTTGGG (site GACACGACTCC) | 0.173 |
| GACAGGGCATGGACCGGTTTTCCCGGTAATCCGTATTTGAT (site GACAGGGCTAT) | 1.89 |
| GACATCCCATGGACCGGTTTTCCCGGTAATCCGTATTTGAA (site GACATCCCTTT) | 0.475 |
| GACCAACCATGGACCGGTTTTCCCGGTAATCCGTATTTGGT (site GACAAACCTAC) | 0 |
| GACCAACCATGGACCGGTTTTCCCGGTAATCCGTATTTGGT (site GACCAACCTAC) | 0.0426 |
| GACCAACCATGGACCGGTTTTCCCGGTAATCCGTATTTGGT (site GACGAACCTAC) | 0 |
| GACCAACCATGGACCGGTTTTCCCGGTAATCCGTATTTGGT (site GACTAACCTAC) | 0.00842 |
| GACCCATCATGGACCGGTTTTCCCGGTAATCCGTATTTGAG (site GACCCATCTCT) | 2.43 |
| GACCGTCCATGGACCGGTTTTCCCGGTAATCCGTATTTGAG (site GACCGTCCTCT) | 0.281 |
| GACCTACCATGGACCGGTTTTCCCGGTAATCCGTATTTGTC (site GACCTACCTGA) | 0 |
| GACCTCACATGGACCGGTTTTCCCGGTAATCCGTATTTGGG (site GACCTCACTCC) | 0.0144 |
| GACCTTGCATGGACCGGTTTTCCCGGTAATCCGTATTTGCA (site GACCTTGCTTG) | 0 |
| GACGAACCATGGACCGGTTTTCCCGGTAATCCGTATTTGAG (site GACGAACCTCT) | 0 |
| GACGAACCATGGACCGGTTTTCCCGGTAATCCGTATTTGGT (site GACAAACCTAC) | 0 |
| GACGAACCATGGACCGGTTTTCCCGGTAATCCGTATTTGGT (site GACCAACCTAC) | 0.0777 |
| GACGAACCATGGACCGGTTTTCCCGGTAATCCGTATTTGGT (site GACGAACCTAC) | 0 |
| GACGAACCATGGACCGGTTTTCCCGGTAATCCGTATTTGGT (site GACTAACCTAC) | 0.0149 |
| GACGCAACATGGACCGGTTTTCCCGGTAATCCGTATTTGTA (site GACGCAACTTA) | 1.34 |
| GACGCCGCATGGACCGGTTTTCCCGGTAATCCGTATTTGGC (site GACGCCGCTGC) | 2.91 |
| GACGTCTCATGGACCGGTTTTCCCGGTAATCCGTATTTGGA (site GACGTCTCTTC) | 1.94 |
| GACTATACATGGACCGGTTTTCCCGGTAATCCGTATTTGGG (site GACTATACTCC) | 0.588 |
| GACTCGACATGGACCGGTTTTCCCGGTAATCCGTATTTGCA (site GACTCGACTTG) | 1.84 |
| GACTCTGCATGGACCGGTTTTCCCGGTAATCCGTATTTGCT (site GACTCTGCTAG) | 1.3 |
| GACTGACCATGGACCGGTTTTCCCGGTAATCCGTATTTGGC (site GACTGACCTGC) | 0 |
| GACTGAGCATGGACCGGTTTTCCCGGTAATCCGTATTTGTC (site GACTGAGCTGA) | 2.29 |

From the supplement of paper PMC11208160
